Patent publication US8748383B2, “Method for treating bone related diseases and calcium disorders” (Novartis AG, priority 2003, dated 2014)

Tests used:
[1] = in vivo
[2] = Water solubility of delivery agent

absorbed by the gastro-intestinal tract [1] | water solubility [2] | SMILES
greater than 90% | – | O=C(O)CCCCCCCCCNC(=O)c1ccccc1O [SNAD, N-(10-[2-hydroxybenzoyl]amino)decanoic acid]
– | very water soluble | O=C(O)CCCCCCCNC(=O)c1cc(Cl)ccc1O [5 CNAC, N-(5-chlorosalicyloyl)-8-aminocaprylic acid]
